# From US6541002B1, “Compositions and methods for providing a protein to a virion” (Thomas Jefferson University, priority 1998, dated 2003)
# No end group written: not given here.
# Molecular target: HIV-1 Vpr (Human immunodeficiency virus type 1 group M subtype B, UniProt P12520)
# Conditions: heptapeptide fused to Gal4AD, co-expressed with Vpr-Gal4 DNA-binding domain chimera
# From the text: DNA fragments encoding the variable heptapeptide region of the coat protein of individual phage isoforms selected from the library described herein were amplified using PCR from purified phage DNA. Amplified peptide-encoding DNA was cloned in frame between the EcoRI and BglII restriction endonuclease sites of pGADGH for use in yeast two-hybrid system experiments.
# The yeast reporter strain, HF7c, which comprises two Gal4-inducible reporter genes, namely HIS3 and LacZ, has been described (BouHamdan et al., 1996, J. Virol. 70:697-704). HF7c cells were transformed with two plasmids, pGB-UDG and pGA-Vpr, using known methods to yield double transformant HF7c cells. […] Cells obtained from these plates were used in a liquid culture assay with yeast reporter strain SFY526 to detect beta-galactosidase activity, as described (BouHamdan et al., 1996, J. Virol. 70:697-704; Bartel et al., 1993, Biotech. 14:920-924). […] was used as the substrate in the assay, and each assay was performed in triplicate.
# Intracellular interaction of ten of the heptapeptide regions listed in Table 2 with HIV-1 Vpr was further tested using the yeast two-hybrid system.
row,Substance,ability of double transformant HF7c cells to grow on histidine-deficient medium
1,GHTWWTF [Pep#7],better able to grow on histidine-deficient medium than the other double transformants tested
2,WHSFPDS [Pep#10],able to grow on histidine-deficient medium
3,WHSFPPP [Pep#8],able to grow on histidine-deficient medium
4,WHDFPLV [Pep#3],better able to grow on histidine-deficient medium than the other double transformants tested
5,TTWWWQF [Pep#4],"better able to grow on histidine-deficient medium than those which expressed chimeric proteins having an amino acid sequence identified in Table 2 as Pep#1 (SEQ ID NO: 16), Pep#8 (SEQ ID NO: 17), or Pep#10 (SEQ ID NO: 18)"
6,KPMWWHF [Pep#9],better able to grow on histidine-deficient medium than the other double transformants tested
7,KPKWAIV [Pep#2],unable to grow on histidine-deficient medium
8,LPPWAAF [Pep#6],better able to grow on histidine-deficient medium than the other double transformants tested
9,SAPWWTF [Pep#5],"better able to grow on histidine-deficient medium than those which expressed chimeric proteins having an amino acid sequence identified in Table 2 as Pep#1 (SEQ ID NO: 16), Pep#8 (SEQ ID NO: 17), or Pep#10 (SEQ ID NO: 18)"
10,SWWSFTP [Pep#1],able to grow on histidine-deficient medium
